According to patent US8148373B2, “Compounds” (AstraZeneca AB, priority 2008, dated 2012):

Legend:
[1] = molecular target: T1, Adrenergic β2 (H292 cells) (Homo sapiens, UniProt P07550); experiment: Adrenergic β2 Mediated cAMP Production, single concentration 1 μM; assay type: cell-based; conditions: NCI-H292, 1 μM compound, percentage of the maximum response generated by 1E-07M formoterol, read-out: β2 (% effect at 1 μM)
T1 construct: endogenous in cells; host or cells: H292 cells
Outline: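 H292 cells were plated overnight, pre-treated with 300 μM rolipram for 10 min, then exposed to compound at 1 μM final (1% DMSO) for 60 min at room temperature. cAMP in the lysates was measured by AlphaScreen against a standard curve and expressed as % of the maximal response to 1E-07M formoterol.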

[2] = molecular target: T2, human muscarinic acetylcholine M3 receptor (M3-ACh) (Homo sapiens, UniProt P20309); experiment: Muscarinic 3 Receptor Binding Assay, % inhibition specific binding at 1 μM; conditions: 1 μM compound, % inhibition specific [3H]-NMS binding
T2 construct: expressed in transfected cells; host or cells: CHO-K1 (Chinese Hamster Ovary) cell membranes
T2 sequence (P20309 whole entry): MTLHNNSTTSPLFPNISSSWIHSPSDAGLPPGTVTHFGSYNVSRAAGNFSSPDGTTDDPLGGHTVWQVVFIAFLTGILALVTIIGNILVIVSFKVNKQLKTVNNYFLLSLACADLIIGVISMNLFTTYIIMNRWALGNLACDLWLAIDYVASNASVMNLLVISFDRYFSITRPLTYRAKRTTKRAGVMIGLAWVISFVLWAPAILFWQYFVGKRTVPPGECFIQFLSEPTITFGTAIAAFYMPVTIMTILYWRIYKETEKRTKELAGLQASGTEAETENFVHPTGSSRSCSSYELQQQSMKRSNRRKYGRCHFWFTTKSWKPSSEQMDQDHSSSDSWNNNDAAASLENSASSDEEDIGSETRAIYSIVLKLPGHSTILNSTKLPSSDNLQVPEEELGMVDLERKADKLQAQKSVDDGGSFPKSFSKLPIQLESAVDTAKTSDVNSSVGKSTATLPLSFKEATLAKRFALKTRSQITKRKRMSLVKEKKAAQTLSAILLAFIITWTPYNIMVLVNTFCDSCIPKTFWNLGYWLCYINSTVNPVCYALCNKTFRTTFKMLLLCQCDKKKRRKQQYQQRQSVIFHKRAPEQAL
Outline: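 Competition binding of 0.1 nM [3H]NMS to membranes from CHO-K1 cells expressing human M3, SPA format, with compound at 1 μM in 20 mM HEPES pH 7.4, 5 mM MgCl2, 1% DMSO. Incubated 16 h at room temperature; non-specific binding defined by 1 μM atropine; value is % inhibition of specific binding.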

T1 sequence (P07550 whole entry): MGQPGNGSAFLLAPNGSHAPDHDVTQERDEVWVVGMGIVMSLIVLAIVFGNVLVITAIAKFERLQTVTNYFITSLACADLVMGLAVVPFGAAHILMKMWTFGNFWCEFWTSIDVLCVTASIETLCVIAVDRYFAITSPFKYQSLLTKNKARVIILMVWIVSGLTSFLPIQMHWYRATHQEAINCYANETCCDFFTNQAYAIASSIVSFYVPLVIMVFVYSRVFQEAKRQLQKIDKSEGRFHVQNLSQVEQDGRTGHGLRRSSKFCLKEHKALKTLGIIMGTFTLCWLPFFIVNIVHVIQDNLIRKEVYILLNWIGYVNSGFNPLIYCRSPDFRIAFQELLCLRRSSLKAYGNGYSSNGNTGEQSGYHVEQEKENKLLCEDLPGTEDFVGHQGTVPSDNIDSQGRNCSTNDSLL

SMILES	activation at 1 µM [1]	inhibition at 1 µM [2]
Cc1occc1C(=O)N1CCOC2(CCN(CCOc3ccc(CNC[C@H](O)c4ccc(O)c5[nH]c(=O)sc45)cc3)CC2)C1 [Example 238, (R)-4-hydroxy-7-(1-hydroxy-2-(4-(2-(4-(2-methylfuran-3-carbonyl)-1-oxa-4,9-diazaspiro[5.5]undecan-9-yl)ethoxy)benzylamino)ethyl) benzo[d]thiazol-2(3H)-one]	73%	57%
Cc1ccc(C(=O)N2CCOC3(CCN(CCOc4ccc(CNC[C@H](O)c5ccc(O)c6[nH]c(=O)sc56)cc4)CC3)C2)o1 [Example 239, (R)-4-hydroxy-7-(1-hydroxy-2-(4-(2-(4-(5-methylfuran-2-carbonyl)-1-oxa-4,9-diazaspiro[5.5]undecan-9-yl)ethoxy)benzylamino)ethyl) benzo[d]thiazol-2(3H)-one]	76%	90%
O=C(COc1ccccc1)N1CCOC2(CCN(CCOc3ccc(CNC[C@H](O)c4ccc(O)c5[nH]c(=O)sc45)cc3)CC2)C1 [Example 240, (R)-4-hydroxy-7-(1-hydroxy-2-(4-(2-(4-(2-phenoxyacetyl)-1-oxa-4,9-diazaspiro[5.5]undecan-9-yl)ethoxy)benzylamino)ethyl) benzo[d]thiazol-2(3H)-one]	92%	34%
Cc1ccnn1CC(=O)N1CCOC2(CCN(CCOc3ccc(CNC[C@H](O)c4ccc(O)c5[nH]c(=O)sc45)cc3)CC2)C1 [Example 241, (R)-4-hydroxy-7-(1-hydroxy-2-(4-(2-(4-(2-(5-methyl-1H-pyrazol-1-yl)acetyl)-1-oxa-4,9-diazaspiro[5.5]undecan-9-yl)ethoxy)benzylamino)ethyl) benzo[d]thiazol-2(3H)-one]	85%	11%
Cc1nc(C(=O)N2CCOC3(CCN(CCOc4ccc(CNC[C@H](O)c5ccc(O)c6[nH]c(=O)sc56)cc4)CC3)C2)c(C)s1 [Example 242, (R)-7-(2-(4-(2-(4-(2,5-dimethylthiazole-4-carbonyl)-1-oxa-4,9-diazaspiro[5.5]undecan-9-yl)ethoxy)benzylamino)-1-hydroxyethyl)-4-hydroxy-benzo[d]thiazol-2(3H)-one]	43%	83%
Cc1cc(C(=O)N2CCOC3(CCN(CCOc4ccc(CNC[C@H](O)c5ccc(O)c6[nH]c(=O)sc56)cc4)CC3)C2)c(C)s1 [Example 243, (R)-7-(2-(4-(2-(4-(2,5-dimethylthiophene-3-carbonyl)-1-oxa-4,9-diazaspiro[5.5]undecan-9-yl)ethoxy)benzylamino)-1-hydroxyethyl)-4-hydroxy-benzo[d]thiazol-2(3H)-one]	84%	78%
O=C(COCc1ccccc1)N1CCOC2(CCN(CCOc3ccc(CNC[C@H](O)c4ccc(O)c5[nH]c(=O)sc45)cc3)CC2)C1 [Example 244, (R)-7-(2-(4-(2-(4-(2-(benzyloxy)acetyl)-1-oxa-4,9-diazaspiro[5.5]undecan-9-yl)ethoxy)benzylamino)-1-hydroxyethyl)-4-hydroxy-benzo[d]thiazol-2(3H)-one]	60%	48%
Cc1ccn(CC(=O)N2CCOC3(CCN(CCOc4ccc(CNC[C@H](O)c5ccc(O)c6[nH]c(=O)sc56)cc4)CC3)C2)n1 [Example 245, (R)-4-hydroxy-7-(1-hydroxy-2-(4-(2-(4-(2-(3-methyl-1H-pyrazol-1-yl)acetyl)-1-oxa-4,9-diazaspiro[5.5]undecan-9-yl)ethoxy)benzylamino)ethyl) benzo[d]thiazol-2(3H)-one]	76%	51%
Cc1sccc1C(=O)N1CCOC2(CCN(CCOc3ccc(CNC[C@H](O)c4ccc(O)c5[nH]c(=O)sc45)cc3)CC2)C1 [Example 246, (R)-4-hydroxy-7-(1-hydroxy-2-(4-(2-(4-(2-methylthiophene-3-carbonyl)-1-oxa-4,9-diazaspiro[5.5]undecan-9-yl)ethoxy)benzylamino)ethyl) benzo[d]thiazol-2(3H)-one]	72%	38%
O=C(CCOc1ccccc1)N1CCOC2(CCN(CCOc3ccc(CNC[C@H](O)c4ccc(O)c5[nH]c(=O)sc45)cc3)CC2)C1 [Example 247, (R)-4-hydroxy-7-(1-hydroxy-2-(4-(2-(4-(3-phenoxypropanoyl)-1-oxa-4,9-diazaspiro[5.5]undecan-9-yl)ethoxy)benzylamino)ethyl) benzo[d]thiazol-2(3H)-one]	75%	60%
O=C(CCc1cccs1)N1CCOC2(CCN(CCOc3ccc(CNC[C@H](O)c4ccc(O)c5[nH]c(=O)sc45)cc3)CC2)C1 [Example 248, (R)-4-hydroxy-7-(1-hydroxy-2-(4-(2-(4-(3-(thiophen-2-yl)propanoyl)-1-oxa-4,9-diazaspiro[5.5]undecan-9-yl)ethoxy)benzylamino)ethyl) benzo[d]thiazol-2(3H)-one]	70%	44%
Cc1cc(CC(=O)N2CCOC3(CCN(CCOc4ccc(CNC[C@H](O)c5ccc(O)c6[nH]c(=O)sc56)cc4)CC3)C2)on1 [Example 249, (R)-4-hydroxy-7-(1-hydroxy-2-(4-(2-(4-(2-(3-methylisoxazol-5-yl)acetyl)-1-oxa-4,9-diazaspiro[5.5]undecan-9-yl)ethoxy)benzylamino)ethyl) benzo[d]thiazol-2(3H)-one]	76%	31%
O=C(c1ccc2occc2c1)N1CCOC2(CCN(CCOc3ccc(CNC[C@H](O)c4ccc(O)c5[nH]c(=O)sc45)cc3)CC2)C1 [Example 250, (R)-7-(2-(4-(2-(4-(benzofuran-5-carbonyl)-1-oxa-4,9-diazaspiro[5.5]undecan-9-yl)ethoxy)benzylamino)-1-hydroxyethyl)-4-hydroxybenzo[d]thiazol-2(3H)-one]	77%	91%
Cc1nc(CC(=O)N2CCOC3(CCN(CCOc4ccc(CNC[C@H](O)c5ccc(O)c6[nH]c(=O)sc56)cc4)CC3)C2)cs1 [Example 251, (R)-4-hydroxy-7-(1-hydroxy-2-(4-(2-(4-(2-(2-methylthiazol-4-yl)acetyl)-1-oxa-4,9-diazaspiro[5.5]undecan-9-yl)ethoxy)benzylamino)ethyl) benzo[d]thiazol-2(3H)-one]	68%	51%
Cc1nc(C)c(CC(=O)N2CCOC3(CCN(CCOc4ccc(CNC[C@H](O)c5ccc(O)c6[nH]c(=O)sc56)cc4)CC3)C2)s1 [Example 252, (R)-7-(2-(4-(2-(4-(2-(2,4-dimethylthiazol-5-yl)acetyl)-1-oxa-4,9-diazaspiro[5.5]undecan-9-yl)ethoxy)benzylamino)-1-hydroxyethyl)-4-hydroxy-benzo[d]thiazol-2(3H)-one]	88%	10%
O=C(c1ccsc1Cl)N1CCOC2(CCN(CCOc3ccc(CNC[C@H](O)c4ccc(O)c5[nH]c(=O)sc45)cc3)CC2)C1 [Example 253, (R)-7-(2-(4-(2-(4-(2-chlorothiophene-3-carbonyl)-1-oxa-4,9-diazaspiro[5.5]undecan-9-yl)ethoxy)benzylamino)-1-hydroxyethyl)-4-hydroxy-benzo[d]thiazol-2(3H)-one]	73%	35%
